Activity calls are given as the source filed them. No cut-off for these calls is given here.
How the values were obtained:
LNCaP [1] = assay: Antiproliferative activity against human LNCaP cells at 25 uM assessed as suppression of cell viability after 4 hrs by CCK-8 assay; assay type: functional
Mus musculus [2] = assay: Immunosuppressive activity in MOG (35 to 55 residues)/pertussis toxin-induced experimental autoimmune encephalomyelitis female C57BL/6 mouse model assessed as reduction in serum TNF-alpha level at 0.5 mg, ip; assay type: functional, organism-based
MDA-MB-231 [3] = assay: Antiproliferative activity against human MDA-MB-231 cells after 4 hrs by CCK-8 assay; assay type: functional, cell-based; conditions: MDA-MB-231, 4 h
Mus musculus [4] = assay: Immunosuppressive activity in MOG (35 to 55 residues)/pertussis toxin-induced experimental autoimmune encephalomyelitis female C57BL/6 mouse model assessed as reduction in OX40 mRNA expression in CD4 + T cells at 0.5 mg, ip; assay type: functional, organism-based; conditions: T-cell
HEK293T [5] = assay: Inhibition of Arid5a Y137 pocket X mutant in human HEK293T cells at 40 uM assessed as inhibition of stabilization of OX40 on 3'UTR measured by luciferase assay; assay type: cell-based
Macrophage [6] = assay: Antiinflammatory activity in LPS-stimulated mouse peritoneal macrophages at 40 uM assessed as effect on TNF-alpha level measured by ELISA; assay type: functional, cell-based
HEK293T [7] = assay: Inhibition of Arid5a V34 pocket X mutant in human HEK293T cells at 40 uM assessed as inhibition of stabilization of OX40 on 3'UTR measured by luciferase assay; assay type: cell-based
Homo sapiens = species: Homo sapiens; assay: Inhibition of human Arid5a binding to (ADE) -like stem loop in the OX40 3'UTR measured by RNA-protein binding assay; conditions: dose 0.5 mg
HEK293T [8] = assay: Inhibition of Arid5a in human HEK293T cells at 10 to 60 uM assessed as inhibition of stabilization of OX40 on 3'UTR measured by luciferase assay; assay type: cell-based; conditions: dose 10-60 µM
Mus musculus [9] = assay: Protection against imiquimod-induced psoriasis model of BALB/c mouse assessed as reduction in clinical score at 1 mg treated topically; assay type: functional, organism-based
LNCaP [10] = assay: Antiproliferative activity against human LNCaP cells after 4 hrs by CCK-8 assay; assay type: functional, cell-based
HEK293T [11] = assay: Inhibition of Arid5a Y137 pocket X mutant in human HEK293T cells at 40 uM assessed as inhibition of stabilization of IL-6 on 3'UTR measured by luciferase assay; assay type: cell-based
Mus musculus [12] = assay: Immunosuppressive activity in MOG (35 to 55 residues)/pertussis toxin-induced experimental autoimmune encephalomyelitis female C57BL/6 mouse model assessed as reduction in clinical scores at 0.5 mg, ip; assay type: functional, organism-based
HEK293T [13] = assay: Inhibition of Arid5a V34 pocket X mutant in human HEK293T cells at 40 uM assessed as inhibition of stabilization of IL-6 on 3'UTR measured by luciferase assay; assay type: cell-based
HEK293T [14] = assay: Inhibition of Arid5a V34 pocket X mutant in human HEK293T cells at 40 uM assessed as inhibition of stabilization of STAT3 on 3'UTR measured by luciferase assay; assay type: cell-based
HEK293T [15] = assay: Inhibition of Arid5a Y137 pocket X mutant in human HEK293T cells at 40 uM assessed as inhibition of stabilization of STAT3 on 3'UTR measured by luciferase assay; assay type: cell-based
HEK293T [16] = assay: Inhibition of Arid5a in human HEK293T cells at 10 to 60 uM assessed as inhibition of stabilization of IL-6 on 3'UTR measured by luciferase assay; assay type: cell-based; conditions: dose 10-60 µM
A549 [17] = assay: Antiproliferative activity against human A549 cells at 20 uM assessed as suppression of cell viability after 4 hrs by CCK-8 assay; assay type: functional
Mus musculus [18] = assay: Antiinflammatory activity in C57BL/6 mouse model of collagen-induced arthritis assessed as reduction in clinical score at 0.25 mg, ip; assay type: functional, organism-based
Mus musculus [19] = assay: Protection against imiquimod-induced psoriasis model of BALB/c mouse assessed as reduction in IL-6 mRNA expression at 1 mg treated topically; assay type: functional, organism-based
Macrophage [20] = assay: Antiinflammatory activity in LPS-stimulated mouse peritoneal macrophages at 40 uM assessed as decrease in frequency of CD4 + OX40 + T cells in polarized Th17 cells measured by flow cytometry analysis; assay type: functional, cell-based
HEK293T [21] = assay: Inhibition of Arid5a F56 pocket X mutant in human HEK293T cells at 40 uM assessed as inhibition of stabilization of OX40 on 3'UTR measured by luciferase assay; assay type: cell-based
A549 [22] = assay: Antiproliferative activity against human A549 cells after 4 hrs by CCK-8 assay; assay type: functional, cell-based; conditions: A549, 4 h
HEK293T [23] = assay: Inhibition of Arid5a in human HEK293T cells at 40 uM assessed as inhibition of stabilization of IL-6 on 3'UTR measured by luciferase assay; assay type: cell-based
Mus musculus [24] = assay: Antiinflammatory activity in C57BL/6 mouse model of collagen-induced arthritis assessed as reduction in serum IL-6 level at 0.25 mg, ip; assay type: functional, organism-based
HEK293T [25] = assay: Inhibition of Arid5a F56 pocket X mutant in human HEK293T cells at 40 uM assessed as inhibition of stabilization of STAT3 on 3'UTR measured by luciferase assay; assay type: cell-based
Macrophage [26] = assay: Antiinflammatory activity in LPS-stimulated mouse peritoneal macrophages at 40 uM assessed as decrease in IL-17 level measured by ELISA; assay type: functional, cell-based
HEK293T [27] = assay: Inhibition of Arid5a L84 pocket X mutant in human HEK293T cells at 40 uM assessed as inhibition of stabilization of OX40 on 3'UTR measured by luciferase assay; assay type: cell-based
Macrophage [28] = assay: Antiinflammatory activity in LPS-stimulated mouse peritoneal macrophages at 40 uM assessed as decrease STAT3 mRNA expression in Th17 cells; assay type: functional, cell-based
Mus musculus [29] = assay: Immunosuppressive activity in MOG (35 to 55 residues)/pertussis toxin-induced experimental autoimmune encephalomyelitis female C57BL/6 mouse model assessed as reduction in IL-17 level in encephalitogenic CD4 + T cells at 0.5 mg, ip; assay type: functional, organism-based; conditions: T-cell
HEK293T [30] = assay: Inhibition of Arid5a L84 pocket X mutant in human HEK293T cells at 40 uM assessed as inhibition of stabilization of IL-6 on 3'UTR measured by luciferase assay; assay type: cell-based
Mus musculus [31] = assay: Protection against imiquimod-induced psoriasis model of BALB/c mouse assessed as reduction in IL-17a mRNA expression at 1 mg treated topically; assay type: functional, organism-based
HEK293T [32] = assay: Inhibition of Arid5a in human HEK293T cells at 10 to 60 uM assessed as inhibition of stabilization of STAT3 on 3'UTR measured by luciferase assay; assay type: cell-based; conditions: dose 10-60 µM
HEK293T [33] = assay: Inhibition of Arid5a L84 pocket X mutant in human HEK293T cells at 40 uM assessed as inhibition of stabilization of STAT3 on 3'UTR measured by luciferase assay; assay type: cell-based
Macrophage [34] = assay: Antiinflammatory activity in LPS-stimulated mouse peritoneal macrophages at 40 uM assessed as decrease in IL-6 level measured by ELISA; assay type: functional, cell-based
Mus musculus [35] = assay: Immunosuppressive activity in MOG (35 to 55 residues)/pertussis toxin-induced experimental autoimmune encephalomyelitis female C57BL/6 mouse model assessed as reduction in frequency of CD4 + OX40 + T cells at 0.5 mg, ip; assay type: functional, organism-based; conditions: T-cell
Mus musculus [36] = assay: Immunosuppressive activity in MOG (35 to 55 residues)/pertussis toxin-induced experimental autoimmune encephalomyelitis female C57BL/6 mouse model assessed as reduction in serum IL-6 level at 0.5 mg, ip; assay type: functional, organism-based
HEK293T [37] = assay: Inhibition of Arid5a F56 pocket X mutant in human HEK293T cells at 40 uM assessed as inhibition of stabilization of IL-6 on 3'UTR measured by luciferase assay; assay type: cell-based
Mus musculus [38] = assay: Antiinflammatory activity in C57BL/6 mouse model of collagen-induced arthritis assessed as reduction in frequency of CD4+ IL-17+ cells at 0.25 mg, ip; assay type: functional, organism-based
MDA-MB-231 [39] = assay: Antiproliferative activity against human MDA-MB-231 cells at 20 uM assessed as suppression of cell viability after 4 hrs by CCK-8 assay; assay type: functional

O=C(CSc1nnc(-c2ccncc2)o1)c1ccccc1
Activity (LNCaP [1]): 61%
Activity (Mus musculus [2]): Active
IC50 (MDA-MB-231 [3]): 27.8 µM
Activity (Mus musculus [4]): Active
inhibition (HEK293T [5]): inactive
Activity (Macrophage [6]): inactive
inhibition (HEK293T [7]): inactive
inhibition (Homo sapiens): Active
inhibition (HEK293T [8]): Active
Activity (Mus musculus [9]): Active
IC50 (LNCaP [10]): 34.6 µM
inhibition (HEK293T [11]): inactive
Activity (Mus musculus [12]): Active
inhibition (HEK293T [13]): inactive
inhibition (HEK293T [14]): inactive
inhibition (HEK293T [15]): inactive
inhibition (HEK293T [16]): Active
Activity (A549 [17]): 59%
Activity (Mus musculus [18]): Active
Activity (Mus musculus [19]): Active
Activity (Macrophage [20]): Active
inhibition (HEK293T [21]): inactive
IC50 (A549 [22]): 28.4 µM
inhibition (HEK293T [23]): Active
Activity (Mus musculus [24]): Active
inhibition (HEK293T [25]): inactive
Activity (Macrophage [26]): Active
inhibition (HEK293T [27]): inactive
Activity (Macrophage [28]): Active
Activity (Mus musculus [29]): Active
inhibition (HEK293T [30]): inactive
Activity (Mus musculus [31]): Active
inhibition (HEK293T [32]): Active
inhibition (HEK293T [33]): inactive
Activity (Macrophage [34]): Active
Activity (Mus musculus [35]): Active
Activity (Mus musculus [36]): Active
inhibition (HEK293T [37]): inactive
Activity (Mus musculus [38]): Active
Activity (MDA-MB-231 [39]): 64%

Cc1nnc(NCC(=O)c2ccccc2)s1
Activity (LNCaP [1]): 61%
IC50 (MDA-MB-231 [3]): 27.8 µM
Activity (Mus musculus [9]): Active
IC50 (LNCaP [10]): 34.6 µM
Activity (A549 [17]): 59%
Activity (Mus musculus [18]): Active
Activity (Mus musculus [19]): Active
IC50 (A549 [22]): 28.4 µM
inhibition (HEK293T [23]): Active
Activity (Mus musculus [24]): Active
Activity (Mus musculus [31]): Active
Activity (Mus musculus [38]): Active
Activity (MDA-MB-231 [39]): 64%

CC(=O)CSc1nnc(-c2cccnc2)o1
Activity (LNCaP [1]): 61%
IC50 (MDA-MB-231 [3]): 27.8 µM
Activity (Mus musculus [9]): Active
IC50 (LNCaP [10]): 34.6 µM
Activity (A549 [17]): 59%
Activity (Mus musculus [18]): Active
Activity (Mus musculus [19]): Active
IC50 (A549 [22]): 28.4 µM
inhibition (HEK293T [23]): Active
Activity (Mus musculus [24]): Active
Activity (Mus musculus [31]): Active
Activity (Mus musculus [38]): Active
Activity (MDA-MB-231 [39]): 64%

Cc1nnc(SCC(=O)c2ccccc2)o1
Activity (LNCaP [1]): 61%
IC50 (MDA-MB-231 [3]): 27.8 µM
Activity (Mus musculus [9]): Active
IC50 (LNCaP [10]): 34.6 µM
Activity (A549 [17]): 59%
Activity (Mus musculus [18]): Active
Activity (Mus musculus [19]): Active
IC50 (A549 [22]): 28.4 µM
inhibition (HEK293T [23]): Active
Activity (Mus musculus [24]): Active
Activity (Mus musculus [31]): Active
Activity (Mus musculus [38]): Active
Activity (MDA-MB-231 [39]): 64%
